According to patent US12077503B2, “Substituted cyclic amides and their use as herbicides” (FMC CORPORATION, priority 2015, dated 2024):

What was measured:
Format in all cases: in vivo
[1] = test system: barnyardgrass (Echinochloa crus-galli); assay: Test B flooded paddy test; conditions: 250 g ai/ha, Flood
Description: (§1) Plant species in the flooded paddy test selected from rice (Oryra sativa), sedge, umbrella (small-flower umbrella sedge, Cyperus difformis), ducksalad (Heteranthera limosa), and barnyardgrass (Echinochloa crus-galli) were grown to the 2-leaf stage for testing. At time of treatment, test pots were flooded to 3 cm above the soil surface, treated by application of test compounds directly to the paddy water, and then maintained at that water depth for the duration of the test. Treated plants and controls were maintained in a greenhouse for 13 to 15 d, after which time all species were compared to controls and visually evaluated. Plant response ratings, summarized in Table B, are based on a scale of 0 to 100 where 0 is no effect and 100 is complete control. A dash (-) response means no test result.

[2] = test system: ducksalad (Heteranthera limosa); assay: Test B flooded paddy test; conditions: 250 g ai/ha, Flood
Description: as §1

[3] = test system: sedge, umbrella (small-flower umbrella sedge, Cyperus difformis); assay: Test B flooded paddy test; conditions: Flood, 250 g ai/ha; visually evaluated after 13 to 15 d
Description: as §1

rice (Oryra sativa) = assay: Test B flooded paddy test; conditions: 250 g ai/ha, Flood
Description: as §1

[4] = test system: giant foxtail (Setaria faberii); assay: Test A preemergence; conditions: for Foxtail, Giant plant response rating: 0 to 100 scale where 0 is no effect and 100 is complete control; for Plant response rating, Foxtail, Giant: 125 g ai/ha, 0 to 100 scale (0 no effect, 100 complete control)
Excerpt: (§2) Seeds of plant species selected from barnyardgrass (Echinochloa crus-galli), Kochia (Kochia scoparia), ragweed (common ragweed, Ambrosia elatior), ryegrass, Italian (Italian ryegrass, Lolium multiflorum), crabgrass, large (Digitaria sanguinalis), giant foxtail (Setaria faberii), green foxtail (Setaria viridis), morningglory (Ipomoea spp.), pigweed (Amaranthus retroflexus), velvetleaf (Abutilon theophrasti), wheat (Triticum aestivum), and corn (Zea mays) were planted into a blend of loam soil and sand and treated preemergence with a directed soil spray using test chemicals formulated in anon-phytotoxic solvent mixture which included a surfactant.
(§3) At the same time, plants selected from these crop and weed species and also blackgrass (Alopecurus myosuroides), and Galium (catchweed bedstraw, Galium aparine) were planted in pots containing the same blend of loam soil and sand and treated with postemergence applications of test chemicals formulated in the same manner. Plants ranged in height from 2 to 10 cm and were in the one- to two-leaf stage for the postemergence treatment. Treated plants and untreated controls were maintained in a greenhouse for approximately 10 d, after which time all treated plants were compared to untreated controls and visually evaluated for injury. Plant response ratings, summarized in Table A, are based on a 0 to 100 scale where 0 is no effect and 100 is complete control. A dash (-) response means no test result.

[5] = test system: ryegrass, Italian (Italian ryegrass, Lolium multiflorum); assay: Test A preemergence; conditions: Preemergence; for Plant response rating, Ryegrass, Italian: 125 g ai/ha, 0 to 100 scale (0 no effect, 100 complete control)
Excerpt: as §2, §3

[6] = test system: barnyardgrass (Echinochloa crus-galli); assay: Test A preemergence; conditions: for Barnyardgrass plant response rating: 0 to 100 scale where 0 is no effect and 100 is complete control; for Plant response rating, Barnyardgrass: 125 g ai/ha, 0 to 100 scale (0 no effect, 100 complete control)
Excerpt: as §2, §3

[7] = test system: ragweed (common ragweed, Ambrosia elatior); assay: Test A preemergence; conditions: for Ragweed plant response rating: 0 to 100 scale where 0 is no effect and 100 is complete control; for Plant response rating, Ragweed: 125 g ai/ha, 0 to 100 scale (0 no effect, 100 complete control)
Excerpt: as §2, §3

[8] = test system: pigweed (Amaranthus retroflexus); assay: Test A preemergence; conditions: for Pigweed plant response rating: 0 to 100 scale where 0 is no effect and 100 is complete control; for Plant response rating, Pigweed: 125 g ai/ha, 0 to 100 scale (0 no effect, 100 complete control)
Excerpt: as §2, §3

Kochia (Kochia scoparia) [9] = assay: Test A preemergence; conditions: for Kochia plant response rating: 0 to 100 scale where 0 is no effect and 100 is complete control; for Plant response rating, Kochia: 125 g ai/ha, 0 to 100 scale (0 no effect, 100 complete control)
Excerpt: as §2, §3

[10] = test system: wheat (Triticum aestivum); assay: Test A postemergence; conditions: Postemergence
Excerpt: as §2, §3

[11] = test system: Galium (catchweed bedstraw, Galium aparine); assay: Test A postemergence; conditions: Postemergence
Excerpt: as §2, §3

[12] = test system: giant foxtail (Setaria faberii); assay: Test A postemergence; conditions: Postemergence
Excerpt: as §2, §3

corn (Zea mays) = assay: Test A postemergence; conditions: Postemergence
Excerpt: as §2, §3

[13] = test system: ryegrass, Italian (Italian ryegrass, Lolium multiflorum); assay: Test A postemergence; conditions: Postemergence
Excerpt: as §2, §3

[14] = test system: blackgrass (Alopecurus myosuroides); assay: Test A postemergence; conditions: Postemergence
Excerpt: as §2, §3

[15] = test system: ragweed (common ragweed, Ambrosia elatior); assay: Test A postemergence; conditions: Postemergence
Excerpt: as §2, §3

[16] = test system: pigweed (Amaranthus retroflexus); assay: Test A postemergence; conditions: Postemergence
Excerpt: as §2, §3

Kochia (Kochia scoparia) [17] = assay: Test A postemergence; conditions: Postemergence
Excerpt: as §2, §3

[18] = test system: barnyardgrass (Echinochloa crus-galli); assay: Test A postemergence; conditions: Postemergence
Excerpt: as §2, §3

[19] = 0 to 100 scale where 0 is no effect and 100 is complete control
[20] = 125 g ai/ha, visual rating about 10 d after treatment
[21] = 500 g ai/ha, visual injury, 0 to 100 scale (0 no effect, 100 complete control), approx. 10 d
[22] = visually evaluated after 13 to 15 d
[23] = 31 g ai/ha, 0 is no effect, 100 is complete control

Cc1cc([C@H]2CN(C)C(=O)[C@@H]2C(=O)Nc2ccccc2[S+](C)[O-])ccc1F (stereo partly shown) [Compound 1314]
Barnyardgrass plant response rating [1, 19]: 65 | Ducksalad plant response rating [2, 19]: 100 | Plant response rating, Sedge, Umbrella (0 to 100 scale where 0 is no effect and 100 is complete control) [3]: 0 | Rice plant response rating (rice (Oryra sativa); [19]): 0 | Foxtail, Giant plant response rating ([4]; 500 g ai/ha, preemergence): 100 | Plant response rating, Foxtail, Giant ([4]; Preemergence): 90 | Plant response rating, Ryegrass, Italian [5]: 20 | Barnyardgrass plant response rating ([6]; 500 g ai/ha, preemergence): 100 | Plant response rating, Barnyardgrass ([6]; Preemergence): 100 | Ragweed plant response rating ([7]; 500 g ai/ha, preemergence): 100 | Plant response rating, Ragweed ([7]; Preemergence): 80 | Pigweed plant response rating ([8]; 500 g ai/ha, preemergence): 70 | Plant response rating, Pigweed ([8]; Preemergence): 0 | Kochia plant response rating (Kochia (Kochia scoparia) [9]; 500 g ai/ha, preemergence): 80 | Plant response rating, Kochia (Kochia (Kochia scoparia) [9]; Preemergence): 80 | Wheat plant response rating (0 to 100 scale) [10, 20]: 20 | Plant response rating, Wheat [10, 21]: 60 | Galium plant response rating (0 to 100 scale) [11, 20]: 30 | Plant response rating, Galium [11, 21]: 50 | Foxtail, Giant plant response rating (0 to 100 scale) [12, 20]: 90 | Plant response rating, Foxtail, Giant [12, 21]: 90 | Corn plant response rating (0 to 100 scale) (corn (Zea mays); [20]): 30 | Plant response rating, Corn (corn (Zea mays); [21]): 70 | Ryegrass, Italian plant response rating (0 to 100 scale) [13, 20]: 0 | Plant response rating, Ryegrass, Italian [13, 21]: 0 | Blackgrass plant response rating (0 to 100 scale) [14, 20]: 0 | Plant response rating, Blackgrass [14, 21]: 60 | Ragweed plant response rating (0 to 100 scale) [15, 20]: 0 | Plant response rating, Ragweed [15, 21]: 50 | Pigweed plant response rating (0 to 100 scale) [16, 20]: 0 | Plant response rating, Pigweed [16, 21]: 30 | Kochia plant response rating (0 to 100 scale) (Kochia (Kochia scoparia) [17]; [20]): 50 | Plant response rating, Kochia (Kochia (Kochia scoparia) [17]; [21]): 60

CN1C[C@H](c2ccc3c(c2)OC(F)(F)O3)[C@@H](C(=O)Nc2cccc([N+](=O)[O-])c2)C1=O [Compound 1353]
Plant response rating, Barnyardgrass (0 to 100 scale where 0 is no effect and 100 is complete control) [1, 22]: 60 | Plant response rating, Ducksalad (0 to 100 scale where 0 is no effect and 100 is complete control) [2, 22]: 40 | Plant response rating, Sedge, Umbrella (0 to 100 scale where 0 is no effect and 100 is complete control) [3]: 0 | Plant response rating, Rice (0 to 100 scale where 0 is no effect and 100 is complete control) (rice (Oryra sativa); [22]): 0 | Foxtail, Giant plant response rating ([4]; 31 g ai/ha, Preemergence): 80 | Plant response rating, Foxtail, Giant ([4]; Preemergence): 100 | Ryegrass, Italian plant response rating ([5]; 31 g ai/ha, 0 to 100 scale where 0 is no effect and 100 is complete control): 10 | Plant response rating, Ryegrass, Italian [5]: 20 | Barnyardgrass plant response rating ([6]; 31 g ai/ha, Preemergence): 0 | Plant response rating, Barnyardgrass ([6]; Preemergence): 70 | Ragweed plant response rating ([7]; 31 g ai/ha, Preemergence): 40 | Plant response rating, Ragweed ([7]; Preemergence): 0 | Pigweed plant response rating ([8]; 31 g ai/ha, Preemergence): 0 | Plant response rating, Pigweed ([8]; Preemergence): 30 | Kochia plant response rating (Kochia (Kochia scoparia) [9]; 31 g ai/ha, Preemergence): 60 | Plant response rating, Kochia (Kochia (Kochia scoparia) [9]; Preemergence): 80 | Wheat plant response rating (0 to 100 scale) [10, 20]: 0 | Wheat plant response rating (0 to 100 scale) [10, 23]: 0 | Foxtail, Giant plant response rating (0 to 100 scale) [12, 20]: 70 | Foxtail, Giant plant response rating (0 to 100 scale) [12, 23]: 30 | Corn plant response rating (0 to 100 scale) (corn (Zea mays); [20]): 0 | Corn plant response rating (0 to 100 scale) (corn (Zea mays); [23]): 0 | Ryegrass, Italian plant response rating (0 to 100 scale) [13, 20]: 0 | Ryegrass, Italian plant response rating (0 to 100 scale) [13, 23]: 0 | Barnyardgrass plant response rating (0 to 100 scale, 0 no effect, 100 complete control) [18, 20]: 90 | Barnyardgrass plant response rating (0 to 100 scale) [18, 23]: 40 | Blackgrass plant response rating (0 to 100 scale) [14, 20]: 20 | Blackgrass plant response rating (0 to 100 scale) [14, 23]: 0 | Ragweed plant response rating (0 to 100 scale) [15, 20]: 0 | Ragweed plant response rating (0 to 100 scale) [15, 23]: 0 | Pigweed plant response rating (0 to 100 scale) [16, 20]: 20 | Pigweed plant response rating (0 to 100 scale) [16, 23]: 0 | Kochia plant response rating (0 to 100 scale) (Kochia (Kochia scoparia) [17]; [20]): 20 | Kochia plant response rating (0 to 100 scale) (Kochia (Kochia scoparia) [17]; [23]): 0
